“Also recorded” adds a separate entry of the source. Where two headings read alike, the source gives them in different places.
Experiments:
Assay type in all cases: in vivo, Menschen
[1] = Plasma half-lives of TA and OH-TA-Ester after oral triamterene; settings: for half-life: human, plasma, po, read-out: Plasmahalbwertszeiten (converted)
Text: (§1) Bei dem Test wurde darauf geachtet, daß die Versuchspersonen der gleichen Altersgruppe und dem gleichen Geschlecht angehörten und eine annähernd gleiche Nierenfunktion vorlag. Während der Versuchsperiode waren sie stationär aufgenommen und unterlagen denselben Ernährungsbedingungen. Außer den unumgänglich notwendigen, wurden alle anderen Medikamente, insbesondere Diuretika vor Versuchsbeginn abgesetzt.
Die Plasmahalbwertszeiten wurden nach der Formel t50 % = [formula] berechnet, die Flächen unter den Kurven konnten mit Hilfe der Trapezregel errechnet werden.
Die Plasmaproben werden mit dem doppelten Volumen Methanol verdünnt, das ausfallende Protein ausgefällt. Vom Überstand wird ein definierter Anteil auf Kieselgel-Platten (z. B. Kieselgel-60-Fertigplatten "Merck") ohne Fluoresz.enzindi- kator aufgetragen. Anschließend wird mit dem Fließmittel Essigsäureethylester/Methanol/Ammoniak 25 %ig (60 + 30 + 10) bei Kammersättigung chromatographiert. Danach werden die Platten getrocknet und die Substanzen fluoreszenzspektroskopisch gemessen.

[2] = Ratio of TA to OH-TA-Ester in plasma and/or urine after oral administration of triamterene (liver function test); settings: for Verhältnis des OH-TA-Esters zu TA: printed as (x):1
Text: Es wurde gefunden, daß sich Einschränkungen der Leberfunktion mit sehr geringem Aufwand und mit großer diagnostischer und analytischer Sicherheit nachweisen lassen, wenn man 2,4,7-Triamino-6-phenylpteridin (Triamteren = TA) dem Patienten oral verabreicht und in geeignetem zeitlichen Abstand das Verhältnis TA zu OH-TA-Ester im Plasma und/oder im Urin des Patienten bestimmt. Bei normaler Leberfunktion beträgt das Verhältnis TA zu OH-TA-Ester 1:3 bis 1:10. […] Man findet demnach je nach Einschränkung der Leberfunktion mehr natives TA als OH-TA-Ester, was als eine direkte Auswirkung der gestörten Funktion der Leber zu metabolischer Umwandlung von körperfremden Stoffen im Organismus und damit als Indikator für die Leberfunktion überhaupt gewertet werden kann.
Die Verabreichung des Triamteren zur erfindungsgemäßen Bestimmung der Leberfunktionseinschränkung geschieht oral. Bei der Herstellung der Verabreichungsformen (Kapseln, Tabletten etc.) und der Verabreichung selbst, kann von den Erfahrungen mit Triamteren als Therapeutikum ausgegangen werden. Die zur Durchführung des erfindungsgemäßen diagnostischen Verfahrens benötigten Mengen an Triamteren können innerhalb gewisser Grenzen schwanken, beispielsweise zwischen 50 und 300 mg, vorzugsweise bis 100 mg. Zur Einhaltung standardisierter Bedingungen kann es zweckmäßig sein, gleichbleibende Quantitäten an Triamteren zu verabreichen. Dabei kann vorteilhaft von bereits auf dem Markt befindlichen Handelsformen (z. B. Kapseln mit 50 mg Triamteren Jatropur^R) Gebrauch gemacht werden.
as §1
Die Plasmahalbwertszeiten wurden nach der Formel t50 % = [formula] berechnet, die Flächen unter den Kurven konnten mit Hilfe der Trapezregel errechnet werden. […]

[3] = Urinary excretion of TA and OH-TA-Ester after oral triamterene
Text: as §1
Die Durchführung des erfindungsgemäßen diagnostischen Verfahrens kann ebenfalls mit dem Urin der Patienten erfolgen. Während einer Versuchsdauer von 5 Tagen konnte TA und der OH-TA-Ester nachgewiesen werden.
Analog kann auch die Konzentration von TA und OH-TA-Ester im Urin bestimmt werden.

half-life ([1]; Lebergesunde)	half-life ([1]; Leberzirrhotiker, average)	Ausscheidung im Harn beendet ([3]; in vivo)	Ausscheidung im Harn nicht völlig abgeschlossen ([3]; in vivo)	Compound	Plasmahalbwertszeiten, change in Leberzirrhotiker versus Lebergesunde ([1]; Leberzirrhotiker compared with Lebergesunde)	Verhältnis des OH-TA-Esters zu TA ([2]; Lebergesunde)	Verhältnis des OH-TA-Esters zu TA ([2]; Leberzirrhotiker, ratio reversed in one cirrhotic)	Konzentration des OH-TA-Esters in Plasma höher als die der nativen Substanz Triamteren (TA) ([2]; subjects with healthy liver, plasma, fold over TA)	Ausscheidung im Harn beendet ([3]; Lebergesunde, time after which excretion has ended)	Ausscheidung im Harn nicht völlig abgeschlossen ([3]; Leberzirrhotiker, excretion still not fully complete at this time)	Nachweis im Urin ([3]; patients' urine, test duration of 5 days)
–	–	–	–	Nc1nc(N)c2nc(-c3ccc(OS(=O)(=O)O)cc3)c(N)nc2n1 [OH-TA-Ester]	auf das Doppelte verlängert; also recorded: deutlich erhöht, beispielsweise verdoppelt	4-10	1-3,2	vier- bis zwölffache	72 Stunden	> 5 Tagen	nachgewiesen
~5.5 h	11.2 h	72 Stunden	> 5 Tagen	Nc1nc(N)c2nc(-c3ccccc3)c(N)nc2n1 [TA, 2,4,7-Triamino-6-phenylpteridin]	–	–	–	–	–	–	–
